From patent US11427543B2, “Compounds for targeting cancer stem cells” (The General Hospital Corporation, priority 2016, dated 2022)
“Also recorded” adds a separate entry of the source.

What was measured:
[1] = test system: PD-L1; test: PD-L1 protein level by Western blot in cells under compressive (solid) stress; assay type: cell-based; conditions: breast cancer (4T1) and glioblastoma cells (CT2A, GL261), solid stress 0.80 kPa, 1 μM, 24 hours
Experimental: Cells were treated with 1 μM C108 for 24 hours and untreated cells were used as a control. β-actin was used as a loading control.
To generate compressive stress, a device was used that included a piston of adjustable weights applying a constant force to cells growing on a transwell membrane with 0.8 μm-pores. This membrane permitted nutrient and oxygen diffusion but prevented cell transmigration. The connection between compressive stress and G3BP2 and PD-L1 protein levels was measured in 4T1 cells. When 80% cell confluence was reached on the membrane, the cells were compressed for 24 h using the in vitro compression device; a similar membrane containing 80% cell confluence in an uncompressed condition was used as the control. After 24-h compression, proteins were isolated from the control and compressed cells cultured in full-growth medium according to the standard protocol (see e.g., Roose et al. Microvasc Res, 2003, 66(3):204-12). […] To confirm this finding, Western blot analysis was performed with different breast cancer cells (MDA-MB-231 cells) with different of compressive stress, as shown in FIG. 15B).
It was then hypothesized that compounds that bind to G3BP2 protein can repress PD-L1 in stressed cells. Breast cancer cells and glioblastoma cells in vitro were analyzed with 2-hydroxy-N′-[1-(2-hydroxyphenyl)ethylidene]benzohydrazide (i.e., C108) for 24 hours.

[2] = test system: ZEB1; test: ZEB1 protein level by Western blot after compound treatment; assay type: cell-based; conditions: MDA-MB-453 and BT-474 breast cancer cell lines, 3 μM, 24 hours
Experimental: Immunoprecipitation was performed using Protein A Sepharose beads (GE Healthcare Lifesciences). Beads were washed, conjugated to the immunoprecipitating antibody for 2 hours, and immunoprecipitated overnight at 4° C. Western blots were performed using a standard protocol; using 4-10% gradient gel and Tris-glycine transfer buffer.
A direct molecular link between epithelial-mesenchymal transition (EMT) and CSC plasticity in breast cancer has recently been shown; EMT effectors such as ZEB1 can co-induce both EMT and stem-like properties (see e.g., Chaffer et al., Cell, 2013, 154, 61-74). To understand if the G3BP2-mediated CSC state intersects with the EMT program, we the protein level of ZEB1 in G3BP2 knockdown and overexpression breast cancer cell lines was analyzed.

[3] = biological target: T1, G3BP2 (Homo sapiens, UniProt Q9UN86); test: Pull-down with compound-conjugated TURBOBEADS nanoparticles, Western blot with G3BP2 antibodies; assay type: binding; conditions: nanoparticles bound to compound vs nanoparticles alone (control)
T1 construct: protein lysates from three breast cancer cell lines incubated overnight with; endogenous in cells
T1 sequence (Q9UN86 1-482): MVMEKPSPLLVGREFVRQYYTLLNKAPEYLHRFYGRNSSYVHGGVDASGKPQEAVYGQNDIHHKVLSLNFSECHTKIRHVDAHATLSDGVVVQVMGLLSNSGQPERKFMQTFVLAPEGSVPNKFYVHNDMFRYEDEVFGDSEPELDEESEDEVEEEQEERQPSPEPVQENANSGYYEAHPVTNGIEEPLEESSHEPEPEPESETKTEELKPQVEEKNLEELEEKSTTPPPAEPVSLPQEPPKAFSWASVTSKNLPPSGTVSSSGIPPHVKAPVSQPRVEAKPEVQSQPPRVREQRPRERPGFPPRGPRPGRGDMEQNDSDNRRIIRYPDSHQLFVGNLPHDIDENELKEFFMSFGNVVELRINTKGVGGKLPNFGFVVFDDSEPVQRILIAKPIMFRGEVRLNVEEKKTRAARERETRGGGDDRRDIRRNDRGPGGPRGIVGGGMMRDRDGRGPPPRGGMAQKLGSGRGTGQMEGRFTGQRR
Experimental: Western blot analysis was performed with G3BP2 antibodies. Small molecule 2-hydroxy-N′-[1-(2-hydroxyphenyl)ethylidene]benzohydrazide was conjugated to TURBOBEADS® carboxy nanoparticles (TURBOBEADS®). TURBOBEADS® alone were used as a negative control.
To determine which […] would bind to a test compound, TURBOBEADS® carboxy nanoparticles (TURBOBEADS®) were conjugated to 2-hydroxy-N′-[1-(2-hydroxyphenyl)ethylidene]benzohydrazide for 20 mi as per manufacturer's protocol, followed by overnight immunoprecipitation at 4° C. Proteins from metastatic cancer cells were pulled-down with using the test compound-nanoparticle conjugates and using unconjugated nanoparticles as a control.
shRNA-expressing lentivirus was obtained for each pull-down protein and used to infect modified MDA-MB-231 cells. MTT assays were performed with shRNA stable cell lines and treated with non-lethal doses of paclitaxel. Only shRNA […] made cells sensitive to treatment with paclitaxel. To confirm that the test compound (2-hydroxy-N′-[1-(2-hydroxyphenyl)ethylidene]benzohydrazide) bound to G3B3P2, an immunoprecipitation with magnetic nanoparticles bound to 2-hydroxy-N′-[1-(2-hydroxyphenyl)ethylidene]benzohydrazide and nanoparticles alone (control) was carried out.

[4] = test system: IL-6; test: IL-6 concentration by ELISA after compound treatment; assay type: cell-based; conditions: 4T1 and E0771 breast cancer cell lines, 1 μM, 24 hours
Experimental: After treatment, IL-6 concentration was decreased by about 5 to 7 fold.
4T1 and E0771 cells were grow in 96 well plate and were treated with compound for 24 hours (concentration of compound was 1 μM). Commercial ELISA kit (R&D systems) was used for measuring of IL-6 concentration. […] After treatment, IL-6 concentration was decreased by about 5 to 7 fold.

SMILES: CC(=NNC(=O)c1ccccc1O)c1ccccc1O [C108, 2-hydroxy-N′-[1-(2-hydroxyphenyl)ethylidene]benzohydrazide]
- PD-L1 expression level [1]: repressed; also recorded: diminished
- ZEB1 inhibition [2]: 5-7 fold
- Binding of G3BP2 to the compound (Western blotting after immunoprecipitation with magnetic nanoparticles) [3]: binds
- Decrease in IL-6 concentration [4]: 5 to 7 fold
